{"source": "patent US7163698B2", "about": "“Controlled drug delivery system using the conjugation of drug to biodegradable polyester” (priority 1998, dated 2007)", "key": {"[1]": {"conditions": "with polyester polymer carrier; cited from earlier work"}, "[2]": {"system": "mouse EL4 thymoma cells", "conditions": "240 μg/kg s.c. daily during 12 days, C57BL16 mice", "quoted_text": "Antitumor activity against solid tumor of free doxorubicin, free PLGA, doxorubicin encapsulated in nanoparticles and doxorubicin conjugated with nanoparticles was evaluated with mouse EL4 thymoma cells. EL4 Cells (2×10^4 cells in 0.1 ml of PBS pH 7.4 buffer) were transplanted into C57BL16 female mice (10 weeks old) subcutaneously on day 0 and drug injection started on day 10, when tumor diameter reached approximately 2 mm.\nThe mice were divided into five different groups, each group consisting of 6 mice. The first group, control group, was s.c. injected 100 μl PBS pH 7.4 daily during 12 days and the second group free doxorubicin (240 μg/kg body weight). However, the third group was s.c. injected placebo microsphere daily in the first two days, the fourth group nanoparticle conjugated with doxorubicin (2.4 mg/kg body weight) and the fifth group, doxorubicin encapsulated in nanoparticle (1.2 mg/kg body weight)."}, "[3]": {"system": "human hepatoblastoma cell line (HepG2)", "assay": "Cytotoxicity MTT assay", "format": "cell-based", "conditions": "HepG2, 72 hrs", "protocol": "Cytotoxicities of doxorubicin and its PLGA oligomer conjugates released from nanoparticles were determined against human hepatoblastoma cell line (HepG2) obtained from Korea Research Institute of Bioscience and Biotechnology. Free doxorubicin and the released fraction from nanoparticles for 19 days incubation were used for determining the inhibition of cell growth using a tetrazolium dye (MTT) assay according to the previously established method [R. I. Freshney, Measurement of Viability and Cytotoxicity, Chapter 19 in Culture of Animal Cells, Third Edition., Wiley-Liss Inc., New York, 1994, pp. 287–307]. Dulbecco's modification of Eagle's MEM (DMEM) was used as a major cell growth medium and a humidified atmosphere (5% CO2) was maintained for cell culture. HepG2 cells harvested in a logarithmic growth phase were seeded on 96 wells at a cell density of 5×10^3 cells/ml. After incubating the cells in a logarithmic phase with various concentrations of free doxorubicin and the released fraction for 72 hrs, the MTT assay was performed and the percentage of cell viability was then determined."}, "[4]": {"system": "human hepatoblastoma cell line (HepG2)", "conditions": "literature value; read-out: reported IC50; cited from earlier work"}}, "note": "Where two headings read alike, the source gives them in different places."}
{"compound": "gentamycin", "values": [{"measurement": "initial burst effects", "setting": "[1]", "value": "over 50%"}]}
{"compound": "COc1cccc2c1C(=O)c1c(O)c3c(c(O)c1C2=O)C[C@@](O)(C(=O)CO)C[C@@H]3O[C@H]1C[C@H](N)[C@H](O)[C@H](C)O1", "note": "[free doxorubicin, doxorubicin]", "values": [{"measurement": "antitumor activity (tumor diameter)", "setting": "[2]", "value": "significant tumor growth inhibition"}, {"measurement": "IC50", "setting": "[3]", "value": 8.9, "unit": "µM"}, {"measurement": "IC50", "setting": "[4]", "value": 7.3, "unit": "µM"}]}
